pKi: −log10 of the molar value. Like-named read-outs stand apart in the source and are kept apart here. Values belong to the compound of their own block, whether it stands above or below them.
How the values were obtained:
[1] = system: mice (α2 -adrenergic antagonism of clonidine); test: In vivo Antagonism of Clonidine-induced Anti-nociception (phenyl-p-quinone writhing); conditions: Mus musculus; for ED50: read-out: Antagonism of Clonidine Analgesia ED50 -p.o.
Method: (§1) The α2 -adrenergic antagonist activity is measured by three screening methods, described as follows:
(3) In vivo Antagonism of Clonidine-induced Anti-nociception
The intraperitoneal administration of phenyl-p-quinone (PPQ) to mice elicits a nociceptive response which consists of abdominal writhing and extension of the hind limbs. This writhing response is prevented in mice treated with clonidine. When an α2 -adrenergic antagonist is given prior to clonidine, the mice display the writhing response when PPQ is administered. To groups of thirty male mice for each experiment the test compound dissolved in 0.9% sodium chloride was administered either subcutaneously or orally. Clonidine (0.2 mg/kg) was administered orally when the test compound was given subcutaneously and subcutaneously when the test compound was administered orally. Twenty minutes after the administration of clonidine, PPQ (3 mg/kg) was given intraperitoneally. […] The number of mice that writhed at least three times during the five minute observation period was counted. The number of mice that writhed was scored for each dose of antagonist, and the percentage reversal of clonidine-induced anti-nociception (analgesia) was calculated by dividing the number of animals writhing by the total number of test animals and multiplying the quotient by 100.

[2] = molecular target: T1, α2 -adrenergic binding sites (receptor) (Rattus norvegicus, UniProt P22909); test: Tritiated Clonidine Receptor Binding Assay; conditions: for inhibition at 1 µM: at 1000 nM, read-out: Clonidine [^3 H] Binding % I.
T1 construct: to displace ^3 H-clonidine (an α2 -adrenergic agonist) from membranes of rat brain; from tissue; host or cells: rat cerebral cortex homogenate (membranes)
T1 sequence (P22909 1-465): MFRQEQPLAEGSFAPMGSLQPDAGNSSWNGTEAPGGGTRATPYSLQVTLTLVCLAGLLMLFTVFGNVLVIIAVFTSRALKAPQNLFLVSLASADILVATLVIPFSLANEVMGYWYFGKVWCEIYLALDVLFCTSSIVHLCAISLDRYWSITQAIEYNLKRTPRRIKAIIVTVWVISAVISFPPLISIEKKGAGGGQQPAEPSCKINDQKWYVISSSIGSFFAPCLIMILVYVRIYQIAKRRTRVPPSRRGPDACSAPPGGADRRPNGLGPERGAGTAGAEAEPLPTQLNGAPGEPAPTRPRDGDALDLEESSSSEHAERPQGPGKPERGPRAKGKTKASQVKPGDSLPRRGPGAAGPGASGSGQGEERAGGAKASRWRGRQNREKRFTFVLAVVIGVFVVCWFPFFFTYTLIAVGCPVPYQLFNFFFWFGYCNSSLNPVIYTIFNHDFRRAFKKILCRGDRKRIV
Method: as §1
(1) Tritiated Clonidine Receptor Binding Assay
Affinity is determined by assessing the ability of compounds to displace ^3 H-clonidine (an α2 -adrenergic agonist) from membranes of rat brain. Homogenates of rat cerebral cortex are incubated with 0.4 nM ^3 H-clonidine which binds to the α2 -adrenergic binding sites (receptor) present on the membranes of the homogenate. Compounds that bind to the α2 -adrenergic receptor, when added to the incubation mixture, will displace ^3 H-clonidine from its binding site, thereby diminishing the amount of bound radioactivity. The amount of ^3 H-clonidine still bound is quantitated by liquid scintillation spectrometry. The results are determined in terms of percent inhibition or as Ki values. Ki is a measure of the apparent affinity of the test substance for the α2 -adrenergic binding site, as determined by the method of Cheng and Prusoff, Biochemical Pharmacology 22, 3099 (1973).

[3] = molecular target: T2, α2 -adrenergic, isolated rat vas deferens (Rattus norvegicus, UniProt P22909); test: Vas Deferens Assay: antagonism of clonidine-induced inhibition of twitch height; assay type: biochemical
T2 construct: isolated, electrically stimulated rat vas deferens; from tissue; host or cells: isolated rat vas deferens
T2 sequence (P22909 1-465): T1 sequence (P22909 1-465)
Method: as §1
Activity is determined by assessing the ability of compounds to antagonize the inhibition of twitch height induced by clonidine in the isolated, electrically stimulated rat vas deferens. […] The tissue is then rinsed to remove clonidine and, when the twitch height has returned to normal, the test compound is added. The ability of clonidine to inhibit twitch height is then again determined, and the clonidine-induced inhibition in the presence of the test compound is used to calculate percent antagonism of clonidine. Results are recorded in terms of percent inhibition at the concentration of antagonist used, or as pA2 values, determined by the Schild method; cf. Tallarida and Murray, Manual of Pharmacologic Calculations, pp. 29-32 (Springer-Verlag, 1981).

[4] = system: mice; test: Prevention of tetrabenazine-induced ptosis in mice; assay type: in vivo; conditions: Mus musculus, read-out: Tetrabenazine Reversal ED50
Excerpt: A further measure of potential andidepressant activity was obtained by determining the effectiveness of the compounds of the invention in prevention of tetrabenazine-induced ptosis in mice by the method described by Barnett et al., Int. J. Neuropharmacol. 8, 353-360 (1969). The results were expressed in terms of ED50 values (effective dose in 50% of the animals).

[5] = system: male rats; test: Diuretic activity in male rats in comparison with hydrochlorothiazide; assay type: in vivo, rat
[6] = system: α2 -adrenergic; test: α2 -adrenergic antagonist activity (general statement)
Method: On the other hand, the sympathomimetic activity characteristic of the latter group of compounds is not present in the compounds of the present invention.
The α2 -adrenergic antagonist activity is measured by three screening methods, described as follows: […]

[7] = system: α2 -adrenergic; conditions: prior-art compounds; cited from earlier work
[8] = sc, 100 mg/kg s.c., read-out: Antagonism of Clonidine Analgesia % A.
[9] = 0.4 nM ^3 H-clonidine, rat cerebral cortex homogenate, read-out: Clonidine [^3 H] Binding Ki
[10] = Schild method, clonidine 10 nM, read-out: Rat Vas Deferens pA2 (converted)
[11] = po, 100 mg/kg p.o., read-out: Antagonism of Clonidine Analgesia % A.
[12] = rat, at 500 nM, clonidine 10 nM
[13] = 0.4 nM ^3 H-clonidine, rat cerebral cortex homogenate
[14] = sc, 30 mg/kg s.c., read-out: Antagonism of Clonidine Analgesia % A.

pKi [2, 9]: 6.40
SMILES: C[C@@H]1c2ccccc2CC[C@H]1CC1=NCCN1 (relative stereo) [15(d), trans-4,5-Dihydro-2-[(1,2,3,4-tetrahydro-1-methyl-2-naphthalenyl)methyl]-1H-imidazole]
responders at 100 mg/kg [1, 8]: 30%

Kb [3, 10]: 60.3 nM
pKi [2, 9]: 6.87
SMILES: C[C@@H]1c2ccccc2CC[C@@H]1CC1=NCCN1 (relative stereo) [Example 16, cis-4,5-Dihydro-2-[(1,2,3,4-tetrahydro-1-methyl-2-naphthalenyl)methyl]-1H-imidazole]

Kb [3, 10]: 63.1 nM
pKi [2, 9]: 7.92
SMILES: CC1=C(CC2=NCCN2)CCc2ccccc21 [1(b), 2-[(3,4-Dihydro-1-methyl-2-naphthalenyl)methyl]-4,5-dihydro-1H-imidazole]
ED50 [4]: 18 mg/kg
responders at 100 mg/kg [1, 11]: 50%
ED50 ([1]; po): 111 mg/kg

Rat Vas Deferens % A. ([3]; at 500 nM, clonidine 10 nM, 0.5 µM): 3%
inhibition at 0.5 µM [3, 12]: 2%
inhibition at 1 µM [2, 13]: 60%
SMILES: CC1=C(CC2=NCCN2C)CCc2ccccc21 [4(b), 2-[(3,4-Dihydro-1-methyl-2-naphthalenyl)methyl]-4,5-dihydro-1-methyl-1H-imidazole]
responders at 100 mg/kg [1, 8]: 20%

Kb [3, 10]: 37.2 nM
pKi [2, 9]: 7.49
SMILES: CC(C1=Cc2ccccc2CC1)C1=NCCN1 (stereo not shown) [7(b), 2-[1-(3,4-Dihydro-2-naphthalenyl)ethyl]-4,5-dihydro-1H-imidazole]
responders at 30 mg/kg [1, 14]: 70%

inhibition at 0.5 µM [3, 12]: 1%
inhibition at 1 µM [2, 13]: 53%
SMILES: COc1ccc2c(c1)CCC(CC1=NCCN1)=C2C [8(b), 2-[(3,4-Dihydro-6-methoxy-1-methyl-2-naphthalenyl)methyl]-4,5-dihydro-1H-imidazole]

Kb [3, 10]: 19.5 nM
pKi [2, 9]: 8.15
SMILES: CC1=C(CC2=NCCN2)Cc2ccccc21 [9(b), 4,5-Dihydro-2-[(3-methyl-1H-inden-2-yl)methyl]-1H-imidazole]
responders at 30 mg/kg ([1]; po, 30 mg/kg p.o., read-out: Antagonism of Clonidine Analgesia % A.): 10%

Kb [3, 10]: 64.6 nM
pKi [2, 9]: 7.12
SMILES: C1=C(CC2=NCCN2)Cc2ccccc21 [10(b), 4,5-Dihydro-2-[(1H-inden-2-yl)methyl]-1H-imidazole]
responders at 10 mg/kg ([1]; sc, 10 mg/kg s.c., read-out: Antagonism of Clonidine Analgesia % A.): 70%

SMILES: Cc1c(CC2=NCCN2)ccc2ccccc12 [17(e), 4,5-Dihydro-2-[(1-methyl-2-naphthalenyl)methyl]-1H-imidazole]
ED50 [4]: 3 mg/kg
ED50 ([1]; po): 27 mg/kg
responders at 100 mg/kg [1, 8]: 70%
Kb [3, 10]: 44.7 nM
pKi [2, 9]: 8.15

Kb [3, 10]: 17.4 nM
pKi [2, 9]: 7.55
SMILES: C1=C(CC2=NCCN2)CCc2ccccc21 [Example 2(b), 2-[(3,4-Dihydro-2-naphthalenyl)methyl]-4,5-dihydro-1H-imidazole]
ED50 [4]: 284 mg/kg
ED50 ([1]; po): 33 mg/kg
responders at 100 mg/kg [1, 8]: 90%

pKi [2, 9]: 6.48
SMILES: CC1=C(CC2=NCCCN2)CCc2ccccc21 [Example 3, 2-[(3,4-Dihydro-1-methyl-2-naphthalenyl)methyl]-1,4,5,6-tetrahydropyrimidine]

inhibition at 0.5 µM [3, 12]: 2%
pKi [2, 9]: 6.26
SMILES: CCN1CCN=C1CC1=C(C)c2ccccc2CC1 [Example 5, 2-[(3,4-Dihydro-1-methyl-2-naphthalenyl)methyl]-1-ethyl-4,5-dihydro-1H-imidazole]
responders at 100 mg/kg [1, 8]: 20%

inhibition at 0.001 µM ([3]; rat, at 1 (head: Conc. (nM)), clonidine 10 nM): 3%
inhibition at 1 µM [2, 13]: 59%
SMILES: CC1=C(CC2=NC(C)CN2)CCc2ccccc21 (stereo not shown) [Example 6, 2-[(3,4-Dihydro-1-methyl-2-naphthalenyl)methyl]-4,5-dihydro-4-methyl-1H-imidazole]
responders at 100 mg/kg [1, 8]: 20%

Kb [3, 10]: 120 nM
pKi [2, 9]: 7.06
SMILES: CC1=C(Cc2ncc[nH]2)CCc2ccccc21 [Example 11, 2-[(3,4-Dihydro-1-methyl-2-naphthalenyl)methyl]-1H-imidazole]
responders at 30 mg/kg [1, 14]: 60%

SMILES: CC1=C(CC2=NCC(C)(C)CN2)CCc2ccccc21 [Example 12, 2-[(3,4-Dihydro-1-methyl-2-naphthalenyl)methyl]-1,4,5,6-tetrahydro-5,5-dimethylpyrimidine]
increase of sodium excretion, activity relative to hydrochlorothiazide ([5]; 30 mg/kg oral): 38%
increase of sodium excretion, activity relative to hydrochlorothiazide ([5]; 100 mg/kg oral): 94%
diuretic activity (in words) ([5]; in comparison with hydrochlorothiazide): found to possess diuretic activity
α2 -adrenergic antagonist activity (in words) [6]: apparently devoid of any significant α2 -adrenergic antagonist properties

SMILES: c1ccc2cc(CC3=NCCN3)ccc2c1 [Example 18, 4,5-Dihydro-2-(2-naphthalenylmethyl)-1H-imidazole]
ED50 [4]: 27 mg/kg
responders at 100 mg/kg [1, 11]: 80%
ED50 ([1]; po): 53 mg/kg
Kb [3]: 21.4 nM
pKi [2]: 7.32

SMILES: c1ccc2c(c1)CCCC2C1=NCCN1 (stereo not shown) [tetrahydrozoline, 2-(1,2,3,4-tetrahydro-1-naphthyl)-2-imidazoline, reference compound]
α2 -adrenergic antagonist activity (in words, background section) [7]: do not possess α2 -adrenergic antagonist activity
α2 -adrenergic antagonist activity (in words) [6]: essentially devoid of such activity

Source: US4540705A, “Antidepressant imidazolines and related compounds” (priority 1983, dated 1985)
